According to patent US11970474B2, “Substituted benzodiazoles and use thereof in therapy” (THOMAS HELLEDAYS STIFTELSE FÖR MEDICINSK FORSKNING, priority 2018, dated 2024):
Where two headings read alike, the source gives them in different places.

Columns and labels:
[1] = tested on: MLE12 cells; test: Cell viability assay in MLE12 cells (resazurin); type: cell-based, mouse; conditions: TNF-α 20 ng/ml, resazurin added after 24 hours culture
Method: (§1) Stock solutions (10 mM in DMSO) of compounds were dispensed in V-bottom 384-well plates and the following dilutions were prepared: 10 mM and 0.05 mM. The dilutions were transferred to the source plate. Duplicate 6 points dose-response curves of compounds were nano-dispensed in cell plates (CCL2 assay) and in parallel, 11 points DR curves in duplicates were nano-dispensed for the viability assay. The plates were heat sealed and kept at RT until use.
(§2) MLE12 cells in flasks were washed once with PBS, detached with Trypsin/EDTA, resuspended in fresh medium and counted. Cells were diluted to 3×10^5 cells/ml and seeded with Multidrop Combi in cell plates pre-dispensed with compounds, 25 μl/well (7500 cells/well). The plates were placed, one by one, in a CO2-incubator at 37° C. for 1 hour after which 25 μl/well of TNF-α (final concentration 20 ng/ml) were added. The plates were transferred back to the CO2-incubator placed in a plastic box with wet tissue in the bottom, to avoid evaporation, for 30 hours.
After 24 hours culture, resazurin reagent (stock 1 mg/ml in PBS) diluted 1:17 in PBS was added with Multidrop Combi, 10 μl/well, and plates were incubated for 6 hours. Plates were read in Sense plate reader with resorufin protocol (ex544 nm/em595 nm). The results were imported to an excel template where the EC50 values were calculated using XLfit.

[2] = tested on: CCL2; test: Mouse CCL2 assay in MLE12 cells; type: cell-based
Description: Cisbio mouse CCL2 assay is intended for the quantitative measurement of CCL2 in supernatant using HTRF® technology. The assay is compatible with mouse samples, and is highly specific for CCL2. CCL2 is detected in a sandwich assay format using 2 different specific antibodies, one labeled with Cryptate (donor) and the second with d2 (acceptor). The detection principle is based on HTRF® technology. When the labelled antibodies bind to the same antigen, the excitation of the donor with a light source (laser or flash lamp) triggers a Fluorescence Resonance Energy Transfer (FRET) towards the acceptor, which in turn fluoresces at a specific wavelength (665 nm). The two antibodies bind to the CCL2 present in the sample, thereby generating FRET. Signal intensity is proportional to the number of antigen-antibody complexes formed and therefore to the CCL2 concentration. • Materials: • Cells: MLE12 (Mouse Lung Epithelial cells, SV40 transformed) • Medium: DMEM/F12 (Gibco #11330057), FBS 5% (Gibco #10500064), Pen/Strep 50 U/50 μg/ml (Gibco #15070063) • Cell plates: 384-well, black/clear, TC-treated (Corning #3764) • Source plate: Labcyte LDV 384 (Labcyte #LP-0200) • Compound dilution plate: V-bottom 384-well PP plate (Greiner #781280) • Compounds: 10 mM stocks in DMSO • HTRF plates: 384-well, white, half area, non-binding (Costar #3824) • Mouse CCL2 kit: Cisbio 62MCCL2PEH • Other reagents: Trypsin/EDTA 10× (Gibco #15400054), PBS (Gibco #14190169), Resazurin (Sigma-Aldrich #199303), 1 mg/ml in PBS, TNF-α 200 μg/ml in PBS (Peprotech #300-01A) • Instruments: • Echo liquid handler (Labcyte) • Multidrop Combi (Thermo Scientific) • Sense plate reader (Hidex) Compound Handling:
as §1, §2
After 30 hours incubation, the plates were spun down 5 minutes at 400 g, and 16 μl/well of the supernatants were transferred to the assay plate. A mCCL2 standard curve was prepared according to the kit protocol and 16 μl/well of the standards were also added to the assay plate.
The anti-CCL2 antibody mix was prepared according to the kit protocol, and 4 μl/well were added to the assay plate. The plate was sealed and incubated over night at RT. After incubation the plate was read in Sense plate reader with Time-resolved FRET protocol (Ex330 nm/Em 620 and 665 nm). After data reduction, the delta ratios were imported to an excel template where the IC50 values were calculated.

[3] = target: OGG1 (Homo sapiens (Human), UniProt O15527); test: In vitro OGG1 activity assay; type: biochemical; conditions: 800 pM OGG1 enzyme, 2 nM human APEX1, 10 nM 8-oxoA:C substrate
Outline: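 Read-out is fluorescein fluorescence, with compounds in DMSO added first, then enzyme and substrate. OGG1 excises its substrate base from a quenched fluorophore-labelled duplex, and surplus APEX1 cuts the resulting apurinic site. The duplex then melts and fluorescence rises in proportion to glycosylase activity.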

[4] = Mus musculus, MLE12, 30 h, MLE12 cells, TNF-α 20 ng/ml, supernatant after 30 hours, HTRF, read-out: CCL2 (EC50)

Sequence of OGG1 (O15527 whole entry): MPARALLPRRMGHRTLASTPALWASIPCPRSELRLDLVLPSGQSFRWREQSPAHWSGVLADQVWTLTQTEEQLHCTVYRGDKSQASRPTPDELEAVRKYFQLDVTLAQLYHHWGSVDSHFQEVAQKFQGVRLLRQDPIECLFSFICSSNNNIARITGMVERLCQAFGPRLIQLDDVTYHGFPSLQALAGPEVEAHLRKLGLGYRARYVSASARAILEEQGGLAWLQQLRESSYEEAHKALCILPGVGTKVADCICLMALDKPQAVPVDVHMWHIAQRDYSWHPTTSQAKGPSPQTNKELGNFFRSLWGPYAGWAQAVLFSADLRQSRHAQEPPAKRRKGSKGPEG

| SMILES | IC50 ([1]; Mus musculus, MLE12, 24 h) | EC50 [2, 4] | IC50 [3] | IC50 ([1]; Mus musculus) | EC50 ([2]; Mus musculus, MLE12, 30 h, read-out: CCL2 (EC50, nM)) | IC50 [1] | EC50 ([2]; MLE12 cells, TNF-α 20 ng/ml, supernatant after 30 hours, HTRF, read-out: CCL2 (EC50)) |
| --- | --- | --- | --- | --- | --- | --- | --- |
| O=C(Nc1ccc(I)cc1)N1CCC(n2c(=O)[nH]c3cc(Cl)ccc32)CC1 [Example 2, 4-(5-Chloro-2-oxo-2,3-dihydro-1H-1,3-benzodiazol-1-yl)-N-(4-iodophenyl) piperidine-1-carboxamide] | 10.3 µM | 15400 nM | – | – | – | – | – |
| Nc1cccc2c1[nH]c(=O)n2C1CCN(C(=O)Nc2ccc(I)cc2)CC1 [Example 20, 4-(4-Amino-2-oxo-2,3-dihydro-1H-1,3-benzodiazol-1-yl)-N-(4-iodophenyl)piperidine-1-carboxamide] | 11.5 µM | 33000 nM | – | – | – | – | – |
| O=C(Nc1ccc(I)cc1)N1CCC(n2c(=O)[nH]c3c(-n4cccn4)cccc32)CC1 [Example 22, N-(4-iodophenyl)-4-[2-oxo-4-(1H-pyrazol-1-yl)-2,3-dihydro-1H-1,3-benzodiazol-1-yl]piperidine-1-carboxamide] | 13.8 µM | 52700 nM | 0.848 µM | – | – | – | – |
| O=C(Nc1ccc(I)cc1)N1CCC(n2c(=O)[nH]c3c(-n4cncn4)cccc32)CC1 [Example 23, N-(4-iodophenyl)-4-[2-oxo-4-(1H-1,2,4-triazol-1-yl)-2,3-dihydro-1H-1,3-benzodiazol-1-yl]piperidine-1-carboxamide] | 19.9 µM | 29000 nM | 0.728 µM | – | – | – | – |
| O=C(Nc1ccc(I)cc1)N1CCC(n2c(=O)[nH]c3c(-c4cccnc4)cccc32)CC1 [Example 26, N-(4-iodophenyl)-4-[2-oxo-4-(pyridin-3-yl)-2,3-dihydro-1H-1,3-benzodiazol-1-yl]piperidine-1-carboxamide] | 7.7 µM | 15000 nM | – | – | – | – | – |
| O=C(Nc1ccc(Cl)c(Cl)c1)N1CCC(n2c(=O)[nH]c3c(Br)cccc32)CC1 [Example 27, 4-(4-Bromo-2-oxo-2,3-dihydro-1H-1,3-benzodiazol-1-yl)-N-(3,4-dichlorophenyl)piperidine-1-carboxamide] | 7.74 µM | 16300 nM | 0.488 µM | – | – | – | – |
| O=C(Nc1ccc(Cl)c(Cl)c1)N1CCC(n2c(=O)[nH]c3c(-c4cncnc4)cccc32)CC1 [Example 37, N-(3,4-dichlorophenyl)-4-[2-oxo-4-(pyrimidin-5-yl)-2,3-dihydro-1H-1,3-benzodiazol-1-yl]piperidine-1-carboxamide] | 7.03 µM | 17400 nM | 1.59 µM | – | – | – | – |
| Nc1ccc(-c2cccc3c2[nH]c(=O)n3C2CCN(C(=O)Nc3ccc(Cl)c(Cl)c3)CC2)cn1 [Example 39, 4-[4-(6-Aminopyridin-3-yl)-2-oxo-2,3-dihydro-1H-1,3-benzodiazol-1-yl]-N-(3,4-dichlorophenyl)piperidine-1-carboxamide] | 6.5 µM | 15100 nM | 0.788 µM | – | – | – | – |
| O=C(Nc1ccc(I)cc1)N1CCC(n2c(=O)[nH]c3c(-n4cc(Br)cn4)cccc32)CC1 [Example 41, 4-[4-(4-Bromo-1H-pyrazol-1-yl)-2-oxo-2,3-dihydro-1H-1,3-benzodiazol-1-yl]-N-(4-iodophenyl)piperidine-1-carboxamide] | 16.6 µM | 50700 nM | – | – | – | – | – |
| O=C(Nc1ccc(Br)c(Cl)c1)N1CCC(n2c(=O)[nH]c3c(Br)cccc32)CC1 [Example 49, 4-(4-Bromo-2-oxo-2,3-dihydro-1H-1,3-benzodiazol-1-yl)-N-(4-bromo-3-chlorophenyl)piperidine-1-carboxamide] | 5.4 µM | 15200 nM | 0.379 µM | – | – | – | – |
| O=C(Nc1ccc(Cl)c(Cl)c1)N1C2CCC1CC(n1c(=O)[nH]c3c(Br)cccc31)C2 (stereo not drawn) [Example 72, 3-(4-Bromo-2-oxo-2,3-dihydro-1H-1,3-benzodiazol-1-yl)-N-(3,4-dichlorophenyl)-(endo)-8-azabicyclo[3.2.1]octane-8-carboxamide] | – | – | 0.067 µM | 6.31 µM | 21500 nM | – | – |
| COc1cc(NC(=O)N2CCC(n3c(=O)[nH]c4c(Br)cccc43)CC2)ccc1C [Example 75, 4-(4-Bromo-2-oxo-2,3-dihydro-1H-1,3-benzodiazol-1-yl)-N-(3-methoxy-4-methylphenyl)piperidine-1-carboxamide] | 10.4 µM | 34100 nM | 0.223 µM | – | – | 12.8 µM | 39400 nM |
| COc1cc(NC(=O)N2CCC(n3c(=O)[nH]c4c(Br)cccc43)CC2)ccc1Cl [Example 77, 4-(4-Bromo-2-oxo-2,3-dihydro-1H-1,3-benzodiazol-1-yl)-N-(4-chloro-3-methoxyphenyl)piperidine-1-carboxamide] | 7.4 µM | 21200 nM | 0.358 µM | – | – | – | – |
| COc1cc(NC(=O)N2CCC(n3c(=O)[nH]c4c(-c5ccc(CO)nc5)cccc43)CC2)ccc1C [Example 82, 4-{4-[6-(Hydroxymethyl)pyridin-3-yl]-2-oxo-2,3-dihydro-1H-1,3-benzodiazol-1-yl}-N-(3-methoxy-4-methylphenyl)piperidine-1-carboxamide] | 17.7 µM | 30800 nM | 1 µM | – | – | – | – |
| O=c1[nH]c2c(Br)cccc2n1[C@H]1CC[C@@H](C(=O)Nc2ccc(Cl)c(F)c2)CC1 [Example 121, (Cis)-4-(4-bromo-2-oxo-2,3-dihydro-1H-1,3-benzodiazol-1-yl)-N-(4-chloro-3-fluorophenyl)cyclohexane-1-carboxamide] | 4.86 µM | 13000 nM | – | – | – | – | – |
| Cc1ccc(NC(=O)[C@H]2CC[C@@H](n3c(=O)[nH]c4c(Br)cccc43)CC2)cc1C [Example 124, (Cis)-4-(4-bromo-2-oxo-2,3-dihydro-1H-1,3-benzodiazol-1-yl)-N-(3,4-dimethylphenyl)cyclohexane-1-carboxamide] | 11.5 µM | 31200 nM | – | – | – | – | – |
| COc1cc(NC(=O)[C@H]2CC[C@@H](n3c(=O)[nH]c4c(Br)cccc43)CC2)ccc1F [Example 130, (Cis)-4-(4-bromo-2-oxo-2,3-dihydro-1H-1,3-benzodiazol-1-yl)-N-(4-fluoro-3-methoxyphenyl)cyclohexane-1-carboxamide] | 6.36 µM | 22600 nM | – | – | – | – | – |
| COc1cc(NC(=O)[C@H]2CC[C@@H](n3c(=O)[nH]c4c(N)cccc43)CC2)ccc1C [Example 249, Cis-4-(4-amino-2-oxo-2,3-dihydro-1H-1,3-benzodiazol-1-yl)-N-(3-methoxy-4-methylphenyl)cyclohexane-1-carboxamide] | 15.7 µM | 34700 nM | – | – | – | – | – |
| COc1cc(NC(=O)[C@H]2CC[C@@H](n3c(=O)[nH]c4c(OCCC(C)C)cccc43)CC2)ccc1C [Example 325, Cis-N-(3-methoxy-4-methylphenyl)-4-[4-(3-methylbutoxy)-2-oxo-2,3-dihydro-1H-1,3-benzodiazol-1-yl]cyclohexane-1-carboxamide] | – | – | 0.314 µM | – | – | – | – |
| COc1cc(NC(=O)[C@H]2CC[C@@H](n3c(=O)[nH]c4c(OCCOC5CCCCC5)cccc43)CC2)ccc1C [Example 326, Cis-4-(4-(2-(cyclohexyloxy)ethoxy)-2-oxo-2,3-dihydro-1H-benzo[d]imidazol-1-yl)-N-(3-methoxy-4-methylphenyl)cyclohexanecarboxamide] | – | – | 0.118 µM | – | – | – | – |
